Reference: patent US20100291605A1, “ASSAYS FOR S-ADENOSYLMETHIONINE-DEPENDENT […]” (WASHINGTON STATE UNIVERSITY RESEARCH FOUNDATION, priority 2006, published 2010)
Where no end group is shown, it is not given here. acyl = not defined here

Tests used:
[1] = target: PRMT1 (Rattus norvegicus, UniProt Q63009); test: enzyme-coupled continuous spectrophotometric methyltransferase assay (265 nm); conditions: for Vmax, R3 compared with JMH1: peptide substrates of PRMT1, in words
[2] = target: adenine deaminase (Bacillus subtilis, UniProt P39761); format: biochemical; conditions: hypoxanthine 3.5 μM to 142 μM, in the presence of 13.3 μM adenine
Sequence of adenine deaminase (P39761 whole entry): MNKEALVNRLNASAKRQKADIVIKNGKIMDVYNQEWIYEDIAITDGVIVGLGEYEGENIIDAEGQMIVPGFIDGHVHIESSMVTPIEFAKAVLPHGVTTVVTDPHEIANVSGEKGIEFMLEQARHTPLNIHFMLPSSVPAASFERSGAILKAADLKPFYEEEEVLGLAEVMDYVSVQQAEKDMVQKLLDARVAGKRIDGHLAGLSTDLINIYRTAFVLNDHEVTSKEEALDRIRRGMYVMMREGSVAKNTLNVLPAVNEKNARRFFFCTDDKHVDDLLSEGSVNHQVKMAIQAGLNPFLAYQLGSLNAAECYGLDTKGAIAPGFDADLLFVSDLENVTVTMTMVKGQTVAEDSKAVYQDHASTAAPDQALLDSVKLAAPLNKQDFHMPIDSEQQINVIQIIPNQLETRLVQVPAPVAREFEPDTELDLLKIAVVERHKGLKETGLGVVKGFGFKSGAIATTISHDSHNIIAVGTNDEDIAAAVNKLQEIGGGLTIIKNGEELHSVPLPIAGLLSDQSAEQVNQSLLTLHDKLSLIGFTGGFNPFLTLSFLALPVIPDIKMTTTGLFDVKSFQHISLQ

Sequence of PRMT1 (Q63009 whole entry): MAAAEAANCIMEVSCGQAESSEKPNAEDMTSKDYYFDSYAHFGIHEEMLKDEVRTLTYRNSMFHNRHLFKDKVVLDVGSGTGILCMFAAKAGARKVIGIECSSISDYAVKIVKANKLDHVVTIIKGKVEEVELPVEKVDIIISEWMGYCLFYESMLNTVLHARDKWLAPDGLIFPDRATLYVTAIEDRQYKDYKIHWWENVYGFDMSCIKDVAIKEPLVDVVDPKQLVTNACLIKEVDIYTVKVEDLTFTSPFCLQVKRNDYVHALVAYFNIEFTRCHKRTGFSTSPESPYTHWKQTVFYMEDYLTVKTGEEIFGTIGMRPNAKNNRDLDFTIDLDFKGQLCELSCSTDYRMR

Compound: acylKGGFGGRGGFGGK (SEQ ID NO:2) (acyl-KGGFGGRGGFGGK; reading uncertain; also: N-terminal acyl group not given here, printed as acylKGGFGGRGGFGGK) [JMH1]
- Vmax, R3 compared with JMH1 [1]: similar

Compound: O=c1[nH]cnc2nc[nH]c12 [hypoxanthine]
- inhibition of adenine deaminase [2]: did not inhibit

Compound: acylGGRGGFGGRGGFGGRGGFG (SEQ ID NO:3) [R3]
- rate, continuous spectrophotometric assay ([1]; 2 μM PRMT1, 211 μM R3): 5.1±0.2 μM AdoHyc formed/min
- Vmax, R3 compared with JMH1 [1]: similar

Compound: acylSGRGKGGKGLGKGGAK (SEQ ID NO:1) [H4 peptide]
- Vmax ([1]; peptide substrate of PRMT1): 5.7 ± 0.2 µM/min
